Experiments:
[1] = test system: pY641-STAT6 in Peripheral Blood Mononuclear Cells (PBMC); assay: MSD-pSTAT-PBMC Assay (pSTAT6, IL-4 stimulated); assay type: cell-based, Human; settings: Homo sapiens, compound 3 hrs, then 1 ng/mL IL-4 for 10 min
Description: Cryopreserved Peripheral Blood Mononuclear Cells (PBMC) are from AllCells. Recombinant Human IL-4 and IL-6 are from Peprotech. Mouse monoclonal anti-STAT3 antibody, rabbit monoclonal anti-pY705-STAT3 antibody, rabbit monoclonal Anti-pY641-STAT6 antibody, and lysis buffer are from Cell Signaling Technology (CST). Mouse monoclonal anti-STAT6 antibody is from BioLegend. Assay plates, blocker, and anti-rabbit secondary antibody are from Meso Scale Discovery (MSD).
Cryopreserved PBMCs were thawed out and allowed to recover overnight in IMDM+10% heat-inactivated FBS prior to plating 50,000 (STAT3) or 25,000 (STAT6) cells per well in 96-well U-bottom tissue culture plates. Cells were treated with compound for 3 hrs, then stimulated with 10 ng/mL IL-6 (STAT3) or 1 ng/mL IL-4 (STAT6) for 10 min. Cells were then spun down and washed with ice-cold PBS prior to lysing the cell pellet with 1× lysis buffer (CST) with 1×HALT protease and phosphatase inhibitor cocktail (Thermo). Lysates were transferred to and incubated overnight at 4° C. with shaking in QuickPlex 96-well high bind assay plates (MSD) pre-coated overnight with 30 μL per well of 0.6 μg/mL mouse monoclonal anti-STAT3 antibody (STAT3) or 2 μg/mL mouse monoclonal anti-STAT6 antibody (STAT6) in 1×PBS, and pre-blocked for 1 hour with 3% Blocker-A (MSD). Captured protein in the assay plates were then washed and probed with 25 μL per well of 0.25 μg/ml rabbit monoclonal anti-pY705-STAT3 antibody (STAT3) or […] rabbit monoclonal Anti-pY641-STAT6 antibody (STAT6) in 1% Blocker-A for 1 hour at room temperature with shaking, then washed and probed with 25 ul per well of 1 ug/ml Sulfo-TAG Labeled Goat Anti-Rabbit Antibody (MSD) in 1% Blocker-A for 1 hour at room temperature with shaking. Assay plates were then washed and 150 μL of 1× Read Buffer-T (MSD) was added to each well prior to reading on an SQ120 MSD Plate Reader. Assay signal from each sample was subtracted by the signal from unstimulated control wells and normalized to DMSO control wells. IC50 values were calculated using Graph Pad Prism Dose-Response Nonlinear Regression with variable slope. For both pSTAT3 and pSTAT6 A=≤100 nM; B=>100-1000 nM; C=>1000-3000 nM; and D=>3 μM.

[2] = biological target: T1, Recombinant STAT6 protein (STAT6(W123-T658)) (Homo sapiens, UniProt P42226); assay: STAT6 Fluorescence Polarization (FP) Assay; assay type: binding; settings: STAT6(W123-T658) 250 nM, probe 5-FAM-ApYKPFQDLI-NH2 2 nM, 45-minute incubation
T1 construct: Recombinant STAT6 protein (STAT6(W123-T658))
T1 sequence (P42226 123-658): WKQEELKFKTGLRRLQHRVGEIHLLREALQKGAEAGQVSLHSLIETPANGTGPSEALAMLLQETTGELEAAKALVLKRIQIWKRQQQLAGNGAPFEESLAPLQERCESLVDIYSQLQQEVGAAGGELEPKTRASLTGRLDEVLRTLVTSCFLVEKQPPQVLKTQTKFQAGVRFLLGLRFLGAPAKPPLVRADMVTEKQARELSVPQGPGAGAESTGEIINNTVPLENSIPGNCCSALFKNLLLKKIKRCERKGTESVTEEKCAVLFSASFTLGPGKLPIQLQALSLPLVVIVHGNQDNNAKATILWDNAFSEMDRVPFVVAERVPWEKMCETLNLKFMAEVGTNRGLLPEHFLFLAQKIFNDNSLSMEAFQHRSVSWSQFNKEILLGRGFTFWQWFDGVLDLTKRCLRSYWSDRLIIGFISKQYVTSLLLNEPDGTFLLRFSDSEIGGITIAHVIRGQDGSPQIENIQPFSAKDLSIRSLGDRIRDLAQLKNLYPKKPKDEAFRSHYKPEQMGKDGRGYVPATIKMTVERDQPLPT
Method in brief: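 Displacement of a fluorescent phosphotyrosine peptide (5-FAM-ApYKPFQDLI-NH2, 2 nM) from STAT6(W123-T658) (250 nM), 1% DMSO, pH 7.4 HEPES buffer. After 45 min at room temperature, polarization (mP) was plotted versus log compound concentration and fitted by nonlinear regression to give IC50.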

[3] = biological target: T2, Recombinant STAT3 protein (STAT3(G127-I722)) (Homo sapiens, UniProt P40763); assay: STAT3 Fluorescence Polarization (FP) Assay; assay type: binding; settings: STAT3(G127-I722) 25 nM, probe 5-FAM-GpYLPQTV-NH2 2 nM, 45-minute incubation
T2 construct: Recombinant STAT3 protein (STAT3(G127-I722))
T2 sequence (P40763 127-722): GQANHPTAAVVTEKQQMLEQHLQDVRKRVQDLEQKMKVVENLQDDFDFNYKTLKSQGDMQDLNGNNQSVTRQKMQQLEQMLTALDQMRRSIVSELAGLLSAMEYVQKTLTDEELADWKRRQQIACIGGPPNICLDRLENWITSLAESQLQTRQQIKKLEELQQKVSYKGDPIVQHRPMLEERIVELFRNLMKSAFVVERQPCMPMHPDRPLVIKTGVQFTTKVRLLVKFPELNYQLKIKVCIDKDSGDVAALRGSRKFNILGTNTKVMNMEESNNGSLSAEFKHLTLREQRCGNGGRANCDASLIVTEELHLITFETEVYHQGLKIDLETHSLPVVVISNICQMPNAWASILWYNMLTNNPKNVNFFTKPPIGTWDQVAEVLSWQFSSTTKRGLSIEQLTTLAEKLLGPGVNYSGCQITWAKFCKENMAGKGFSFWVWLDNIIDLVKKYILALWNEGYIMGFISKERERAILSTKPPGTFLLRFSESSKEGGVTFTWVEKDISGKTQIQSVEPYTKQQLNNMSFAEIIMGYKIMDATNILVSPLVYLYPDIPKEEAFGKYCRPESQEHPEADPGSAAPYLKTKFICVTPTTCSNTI
Method in brief: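 STAT3(G127-I722), 25 nM, was mixed with 2 nM 5-FAM-GpYLPQTV-NH2 probe in HEPES pH 7.4 buffer with 1% DMSO and serially diluted compound. FP (mP) was read after 45 min at room temperature. IC50 came from nonlinear regression.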

| Compound | IC50 [1] [µM] | IC50 [2] [µM] | IC50 [3] [µM] |
| --- | --- | --- | --- |
| CC(=O)N1CC[C@H]2CC[C@@H](C(=O)N3C[C@H](c4cc[nH]c(=O)c4)[C@@H](C#N)C3)N2C(=O)[C@@H](NC(=O)c2ccc3ccc(C(F)(F)P(=O)(OCCSC(=O)CC(C)C)OCOC(=O)OC(C)C)cc3c2)C1 (single isomer, unassigned) [Compound 302, S-(2-((((7-(((5S,8S, 10aR)-3-acetyl-8-((3R,4S or 3S,4R)-3-cyano-4-(2-oxo-1,2-dihydro-pyridin-4-yl)pyrrolidine-1-carbonyl)-6-oxodecahydro-pyrrolo[1,2-a][1,5]diazocin-5-yl)carbamoyl)naphthalen-2-yl)difluoro-methyl)(((iso-propoxy-carbonyl)oxy)methoxy)phos-phoryl)oxy)ethyl)3-methylbutane-thioate] | 0.1 to 1 | – | – |
| Cc1ccc2onc(C(=O)N3CC[C@H]4CC[C@@H](C(=O)N5C[C@@H](C#N)[C@H](c6ccccc6)C5)N4C(=O)[C@@H](NC(=O)c4ccc5ccc(C(F)(F)P(=O)(OCCSC(=O)CC(C)C)OCCSC(=O)CC(C)C)cc5c4)C3)c2c1 (single isomer, unassigned) [Compound 433] | ≤ 0.1 | – | – |
| N#Cc1cccc(C2CN(C(=O)[C@@H]3CC[C@@H]4CCN(Cc5ncccn5)C[C@H](NC(=O)c5cc6cc(C(F)P(=O)(O)O)ccc6s5)C(=O)N43)C2)n1 (stereo partly drawn) [Compound 398, ((2-(((5S,8S,10aR)-8-(3-(6-cyanopyridin-2-yl)azetidine-1-carbonyl)-6-oxo-3-(pyrimidin-2-ylmethyl)decahydropyrrolo[1,2-a][1,5]diazocin-5-yl)carbamoyl)benzo[b]thiophen-5-yl)fluoromethyl)phosphonic acid] | – | 3 to 30 | ≤ 0.1 |
| N#Cc1cccc(C2CN(C(=O)[C@@H]3CC[C@@H]4CCN(Cc5ncccn5)C[C@H](NC(=O)c5cc6cc(CP(=O)(O)O)ccc6s5)C(=O)N43)C2)n1 [Compound 399, ((2-(((5S,8S,10aR)-8-(3-(6-cyanopyridin-2-yl)azetidine-1-carbonyl)-6-oxo-3-(pyrimidin-2-ylmethyl)decahydro-pyrrolo[1,2-a][1,5]diazocin-5-yl)carbamoyl)benzo[b]thiophen-5-yl)methyl) phosphonic acid] | – | > 30 | 0.1 to 1 |
| CC(=O)N1C[C@H](NC(=O)[C@@H]2CC[C@@H]3CCN(Cc4ncccn4)C[C@H](NC(=O)c4cc5cc(C(F)P(=O)(O)O)ccc5s4)C(=O)N32)[C@@H](F)C1 (stereo partly drawn) [Compound 400, ((2-(((5S,8S,10aR)-8-(((3S,4S)-1-acetyl-4-fluoropyrrolidin-3-yl)carbamoyl)-6-oxo-3-(pyrimidin-2-ylmethyl)decahydropyrrolo[1,2-a][1,5]diazocin-5-yl)carbamoyl)benzo[b]thiophen-5-yl)fluoromethyl)phosphonic acid] | – | 3 to 30 | 0.1 to 1 |
| O=C(N[C@H]1CN(C(=O)NCC23CCN(CC2)CC3)CC[C@H]2CC[C@@H](C(=O)N3CC(c4cccnc4)C3)N2C1=O)c1cc2cc(C(F)(F)P(=O)(O)O)ccc2s1 [Compound 401, (difluoro(2-(((5S,8S, 10aR)-6-oxo-8-(3-(pyridin-3-yl)azetidine-1-carbonyl)-3-((quinuclidin-4-ylmethyl)carbamoyl)decahydropyrrolo [1,2-a][1,5]diazocin-5-yl)carbamoyl)benzo[b]thiophen-5-yl)methyl) phosphonic acid] | – | 3 to 30 | ≤ 0.1 |
| O=C(N[C@H]1CN(Cc2ccccc2-n2cncn2)CC[C@H]2CC[C@@H](C(=O)N3CC(c4cccnc4)C3)N2C1=O)c1cc2cc(C(F)(F)P(=O)(O)O)ccc2s1 [Compound 402, ((2-(((5S,8S,10aR)-3-(2-(1H-1,2,4-triazol-1-yl)benzyl)-6-oxo-8-(3-(pyridin-3-yl)azetidine-1-carbonyl)decahydro-pyrrolo[1,2-a][1,5]diazocin-5-yl)carbamoyl)benzo[b]thiophen-5-yl)difluoromethyl) phosphonic acid] | – | 3 to 30 | ≤ 0.1 |
| CN1CCN(c2ccc(C(=O)N3CC[C@H]4CC[C@@H](C(=O)N5CC(c6cccnc6)C5)N4C(=O)[C@@H](NC(=O)c4cc5cc(C(F)(F)P(=O)(O)O)ccc5s4)C3)c(Cl)c2)CC1 [Compound 403, ((2-(((5S,8S,10aR)-3-(2-chloro-4-(4-methylpiperazin-1-yl)benzoyl)-6-oxo-8-(3-(pyridin-3-yl)azetidine-1-carbonyl)decahydropyrrolo[1,2-a][1,5]diazocin-5-yl)carbamoyl)benzo[b]thiophen-5-yl)difluoromethyl) phophonic acid] | – | 3 to 30 | ≤ 0.1 |
| O=C(N[C@H]1CS(=O)(=O)CC[C@H]2CC[C@@H](C(=O)N3CC(c4cccnc4)C3)N2C1=O)c1cc2cc(C(F)(F)P(=O)(O)O)ccc2s1 [Compound 404, ((2-(((5R,8S,10aR)-3,3-dioxido-6-oxo-8-(3-(pyridin-3-yl)azetidine-1-carbonyl)octahydro-4H-pyrrolo[2,1-d][1,5]thiazocin-5-yl)carbamoyl)benzo[b]thiophen-5-yl)difluoromethyl) phosphonic acid] | – | 3 to 30 | ≤ 0.1 |
| O=C(N[C@H]1CSCC[C@H]2CC[C@@H](C(=O)N3CC(c4cccnc4)C3)N2C1=O)c1cc2cc(C(F)(F)P(=O)(O)O)ccc2s1 [Compound 405, (difluoro(2-(((5R,8S, 10aR)-6-oxo-8-(3-(pyridin-3-yl)azetidine-1-carbonyl)octahydro-4H-pyrrolo[2,1-d][1,5]thiazocin-5-yl)carbamoyl)benzo[b]thiophen-5-yl)methyl) phosphonic acid] | – | 3 to 30 | ≤ 0.1 |
| CCCOC(=O)[C@H](C)NP(=O)(Oc1ccccc1)C(F)c1ccc2ccc(C(=O)N[C@H]3CN(C(C)=O)CC[C@H]4CC[C@@H](C(=O)N5CC(c6ccn(C)c(=O)c6)CC56CC6)N4C3=O)cc2c1 (stereo partly drawn) [Compound 406, propyl (((7-(((5S,8S,10aR)-3-acetyl-8-(6-(1-methyl-2-oxo-1,2-dihydro-pyridin-4-yl)-4-azaspiro[2.4]heptane-4-carbonyl)-6-oxodeca-hydropyrrolo [1,2-a] [1,5]diazocin-5-yl)carbamoyl)naphthalen-2-yl)fluoromethyl) (phenoxy)phosphoryl)-L-alaninate] | 0.1 to 1 | – | – |
| ((2-(((5S,8S,10aR)-3-acetyl-8-((rel-trans)-3-cyano-3-methyl-4-phenylpyrrolidine-1-carbonyl)-6-oxodecahydropyrrolo[1,2-a][1,5]diazocin-5-yl)carbamoyl)benzo[b]thiophen-5-yl)difluoromethyl)phosphonic acid [Compound 41] | – | ≤ 0.3 | 1 to 10 |
| ((2-(((5S,8S,10aR)-8-((3S,4R or 3R,4S)-3-cyano-4-phenylpyrrolidine-1-carbonyl)-3-(2,2-difluoroethyl)-6-oxodecahydropyrrolo[1,2-a][1,5]diazocin-5-yl)carbamoyl)benzo[b]thiophen-5-yl)difluoromethyl)phosphonic acid [Compound 249] | – | ≤ 0.3 | 0.1 to 1 |
